Measured values: US9469650B2, “Melampomagnolide B derivatives” (BOARD OF TRUSTEES OF THE UNIVERSITY OF ARKANSAS, priority 2013, dated 2016)

Key:
RPMI-8226 = assay: panel of 60 human tumor cell lines, growth inhibition (Leukemia); details: RPMI-8226
MALME-3M [1] = assay: panel of 60 human tumor cell lines, growth inhibition (Melanoma); details: MALME-3M
MALME-3M [2] = tested on: MALME-3M

Q: With `C=C1C(=O)O[C@H]2[C@H]1CC/C(COC(=O)CCC(=O)N1CCC(C)CC1)=C\CC[C@@]1(C)O[C@@H]21` [JVM 2-70] as the molecule, how does the CC50 (SN12C) read?
A: 51.9 µM

Q: What about the CC50 (OVCAR-5) of the same molecule?
A: 49.9 µM

Q: And the CC50 (HCC-2998)?
A: 61 µM

Q: What about the CC50 (OVCAR-8) of the same molecule?
A: 42.9 µM

Q: And the CC50 (UO-31)?
A: 46.9 µM

Q: And the CC50 (HOP-62)?
A: 74.9 µM

Q: What about the CC50 (786-0) of the same molecule?
A: 58 µM

Q: What about the CC50 (SNB-75) of the same molecule?
A: 57 µM

Q: And the CC50 (SNB-19)?
A: 63.4 µM

Q: And the CC50 (IGROV1)?
A: 94 µM

Q: And the CC50 (HCT-15)?
A: 32.6 µM

Q: What about the “Percent Growth” value (RPMI-8226; Log10 Concentration −4.0) of the same molecule?
A: −34%

Q: What about the “Percent Growth” value (RPMI-8226; Log10 Concentration −5.0) of the same molecule?
A: 28%

Q: And the “Percent Growth” value (RPMI-8226; Log10 Concentration −6.0)?
A: 96%

Q: What about the “Percent Growth” value (RPMI-8226; Log10 Concentration −7.0) of the same molecule?
A: 98%

Q: And the “Percent Growth” value (RPMI-8226; Log10 Concentration −8.0)?
A: 101%

Q: What about the GI50 (RPMI-8226; NCI five dose) of the same molecule?
A: 4.74 µM

Q: What about the TGI (RPMI-8226; NCI five dose) of the same molecule?
A: 2.82E−5

Q: What about the CC50 (MCF7) of the same molecule?
A: 64.1 µM

Q: What about the CC50 (LOX IMVI) of the same molecule?
A: 41 µM

Q: What about the CC50 (CCRF-CEM) of the same molecule?
A: 58.6 µM

Q: What about the CC50 (PC-3) of the same molecule?
A: 69.1 µM

Q: And the CC50 (SK-MEL-5)?
A: 47.8 µM

Q: And the CC50 (U251)?
A: 59.7 µM

Q: What about the CC50 (MDA-MB-435) of the same molecule?
A: 61.9 µM

Q: What about the CC50 (MDA-MB-231/ATCC) of the same molecule?
A: 52.8 µM

Q: What about the “Percent Growth” value (MALME-3M [1]; Log10 Concentration −4.0) of the same molecule?
A: −67%

Q: And the “Percent Growth” value (MALME-3M [1]; Log10 Concentration −5.0)?
A: −5%

Q: What about the “Percent Growth” value (MALME-3M [1]; Log10 Concentration −6.0) of the same molecule?
A: 99%

Q: What about the “Percent Growth” value (MALME-3M [1]; Log10 Concentration −7.0) of the same molecule?
A: 108%

Q: And the “Percent Growth” value (MALME-3M [1]; Log10 Concentration −8.0)?
A: 106%

Q: And the GI50 (MALME-3M [1]; NCI five dose)?
A: 2.95 µM

Q: What about the TGI (MALME-3M [1]; NCI five dose) of the same molecule?
A: 8.96E−5

Q: And the CC50 (MOLT-4)?
A: > 100 µM

Q: What about the CC50 (SK-MEL-2) of the same molecule?
A: 61 µM

Q: What about the CC50 (HOP-92) of the same molecule?
A: 36.4 µM

Q: What about the CC50 (A498) of the same molecule?
A: 45.2 µM

Q: What about the CC50 (NCI-H522) of the same molecule?
A: 5.99 µM

Q: What about the CC50 (A549/ATCC) of the same molecule?
A: 75.9 µM

Q: And the CC50 (NCI-H322M)?
A: 65.1 µM

Q: What about the CC50 (DU-145) of the same molecule?
A: 45.9 µM

Q: What about the CC50 (UACC-62) of the same molecule?
A: 49.5 µM

Q: What about the CC50 (K-562) of the same molecule?
A: > 100 µM

Q: What about the CC50 (M14) of the same molecule?
A: 49.3 µM

Q: And the CC50 (SK-OV-3)?
A: > 100 µM

Q: And the CC50 (SW-620)?
A: 42.6 µM

Q: And the CC50 (SF-268)?
A: 69.1 µM

Q: What about the CC50 (HS 578T) of the same molecule?
A: > 100 µM

Q: What about the CC50 (UACC-257) of the same molecule?
A: 47 µM

Q: What about the CC50 (SK-MEL-28) of the same molecule?
A: 44.5 µM

Q: And the CC50 (MALME-3M [2])?
A: 53.6 µM

Q: And the CC50 (SR)?
A: > 100 µM

Q: What about the CC50 (NCI-H460) of the same molecule?
A: 89.4 µM

Q: And the CC50 (SF-295)?
A: 71 µM

Q: And the CC50 (NCI-H23)?
A: 64.3 µM

Q: And the CC50 (BT-549)?
A: 29.3 µM

Q: What about the CC50 (TK-10) of the same molecule?
A: 36.3 µM

Q: Which results are given for `C=C1C(=O)O[C@H]2[C@H]1CC/C(COC(=O)N1CCC(F)(F)CC1)=C\CC[C@@]1(C)O[C@@H]21` [JVM 2-66]?
A: CC50 (SN12C): 37.7 µM; CC50 (OVCAR-5): 48.1 µM; CC50 (HCC-2998): 57.9 µM; CC50 (OVCAR-8): 38.5 µM; CC50 (UO-31): 22.2 µM; CC50 (HOP-62): 58.3 µM; CC50 (786-0): 48.6 µM; CC50 (SNB-75): 47.2 µM; CC50 (SNB-19): 62.7 µM; CC50 (IGROV1): 59.7 µM; CC50 (HCT-15): 10 µM; GI50 (RPMI-8226): 1.98 µM; TGI (RPMI-8226): 5.83E−6; Percent Growth (RPMI-8226; Log10 Concentration −4.0): −46%; Percent Growth (RPMI-8226; Log10 Concentration −5.0): −25%; Percent Growth (RPMI-8226; Log10 Concentration −6.0): 81%; Percent Growth (RPMI-8226; Log10 Concentration −7.0): 97%; Percent Growth (RPMI-8226; Log10 Concentration −8.0): 98%; CC50 (MCF7): 26.4 µM; CC50 (LOX IMVI): 22.5 µM; CC50 (CCRF-CEM): 67.6 µM; CC50 (PC-3): 53.8 µM; CC50 (SK-MEL-5): 40.3 µM; CC50 (U251): 52.1 µM; CC50 (MDA-MB-435): 95.1 µM; CC50 (MDA-MB-231/ATCC): 30.7 µM; GI50 (MALME-3M [1]): 1.9 µM; TGI (MALME-3M [1]): 4.82E−6; Percent Growth (MALME-3M [1]; Log10 Concentration −4.0): −72%; Percent Growth (MALME-3M [1]; Log10 Concentration −5.0): −39%; Percent Growth (MALME-3M [1]; Log10 Concentration −6.0): 84%; Percent Growth (MALME-3M [1]; Log10 Concentration −7.0): 91%; Percent Growth (MALME-3M [1]; Log10 Concentration −8.0): 99%; CC50 (MOLT-4): > 100 µM; CC50 (SK-MEL-2): 37 µM; CC50 (HOP-92): 11.1 µM; CC50 (A498): 28.9 µM; CC50 (NCI-H522): 6.08 µM; CC50 (A549/ATCC): 66.2 µM; CC50 (NCI-H322M): 54.6 µM; CC50 (DU-145): 28.9 µM; CC50 (UACC-62): 23.2 µM; CC50 (K-562): > 100 µM; CC50 (M14): 41.7 µM; CC50 (SK-OV-3): 63.8 µM; CC50 (SW-620): 17.9 µM; CC50 (SF-268): 56.5 µM; CC50 (HS 578T): > 100 µM; CC50 (UACC-257): 36.5 µM; CC50 (SK-MEL-28): 33 µM; CC50 (MALME-3M [2]): 21.6 µM; CC50 (SR): > 100 µM; CC50 (NCI-H460): 72.6 µM; CC50 (SF-295): 51.5 µM; CC50 (NCI-H23): 48.2 µM; CC50 (BT-549): 29.5 µM; CC50 (TK-10): 23.5 µM
